Measurements taken from ChEMBL document CHEMBL1150722, “Inhibitory effects of various flavonoids isolated from leaves of persimmon on angiotensin-converting enzyme activity” (J Nat Prod, 1987).

Key:
[1] = target: T1, Angiotensin-converting enzyme (Rattus norvegicus) (UniProt P47820); assay: Inhibition of rat lung ACE at 113 ug/ml relative to control
T1 sequence (whole entry): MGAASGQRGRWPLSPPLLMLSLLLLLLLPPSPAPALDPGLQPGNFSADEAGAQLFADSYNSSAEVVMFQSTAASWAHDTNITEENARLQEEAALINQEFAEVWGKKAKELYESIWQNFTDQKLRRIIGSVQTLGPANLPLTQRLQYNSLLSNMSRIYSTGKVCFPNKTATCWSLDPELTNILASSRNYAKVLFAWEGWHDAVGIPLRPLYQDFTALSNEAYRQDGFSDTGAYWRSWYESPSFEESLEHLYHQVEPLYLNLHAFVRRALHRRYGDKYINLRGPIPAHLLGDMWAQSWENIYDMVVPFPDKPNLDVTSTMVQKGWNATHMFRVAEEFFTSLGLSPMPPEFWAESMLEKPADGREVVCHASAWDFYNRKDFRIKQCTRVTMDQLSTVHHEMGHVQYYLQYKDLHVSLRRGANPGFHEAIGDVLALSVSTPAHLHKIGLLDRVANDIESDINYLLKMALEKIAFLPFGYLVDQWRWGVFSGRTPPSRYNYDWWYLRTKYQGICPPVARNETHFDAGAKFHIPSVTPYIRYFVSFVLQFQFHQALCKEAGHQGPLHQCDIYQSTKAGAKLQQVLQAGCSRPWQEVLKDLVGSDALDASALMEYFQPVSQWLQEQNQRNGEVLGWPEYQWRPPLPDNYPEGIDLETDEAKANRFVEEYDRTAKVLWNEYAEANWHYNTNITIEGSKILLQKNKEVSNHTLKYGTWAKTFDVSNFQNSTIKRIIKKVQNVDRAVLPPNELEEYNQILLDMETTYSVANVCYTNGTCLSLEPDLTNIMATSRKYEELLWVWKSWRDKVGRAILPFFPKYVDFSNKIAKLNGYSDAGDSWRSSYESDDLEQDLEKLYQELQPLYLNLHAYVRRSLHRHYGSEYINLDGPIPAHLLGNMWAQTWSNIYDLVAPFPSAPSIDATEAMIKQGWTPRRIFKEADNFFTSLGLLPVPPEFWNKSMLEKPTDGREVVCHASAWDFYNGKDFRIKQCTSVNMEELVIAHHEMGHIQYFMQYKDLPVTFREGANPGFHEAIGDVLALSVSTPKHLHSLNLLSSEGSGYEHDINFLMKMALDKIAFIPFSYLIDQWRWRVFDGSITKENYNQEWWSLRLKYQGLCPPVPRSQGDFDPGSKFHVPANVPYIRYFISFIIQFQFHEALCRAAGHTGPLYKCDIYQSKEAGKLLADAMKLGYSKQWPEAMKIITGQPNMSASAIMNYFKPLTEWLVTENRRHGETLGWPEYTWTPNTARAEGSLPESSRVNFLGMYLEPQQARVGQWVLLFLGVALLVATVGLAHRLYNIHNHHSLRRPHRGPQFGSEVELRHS

[2] = target: T1, Angiotensin-converting enzyme (Rattus norvegicus); assay: Inhibition of rat lung ACE at 75 ug/ml relative to control
[3] = target: T1, Angiotensin-converting enzyme (Rattus norvegicus); assay: Inhibition of rat lung ACE at 150 ug/ml relative to control
[4] = target: T1, Angiotensin-converting enzyme (Rattus norvegicus); assay: Inhibition of rat lung ACE at 56 ug/ml relative to control
[5] = target: T1, Angiotensin-converting enzyme (Rattus norvegicus); assay: Inhibition of rat lung ACE at 225 ug/ml relative to control
[6] = target: T1, Angiotensin-converting enzyme (Rattus norvegicus); assay: Inhibition of rat lung ACE at 38 ug/ml relative to control
[7] = target: T1, Angiotensin-converting enzyme (Rattus norvegicus); assay: Inhibition of rat lung ACE at 300 ug/ml relative to control
[8] = target: T2, Angiotensin-converting enzyme (Rattus norvegicus, UniProt P47820); assay: Inhibition of rat lung ACE
T2 sequence (P47820 whole entry): T1 sequence (whole entry)

| inhibition [1] [%] | inhibition [2] [%] | inhibition [3] [%] | inhibition [4] [%] | inhibition [5] [%] | inhibition [6] [%] | inhibition [7] [%] | IC50 [8] [µM] | SMILES |
| --- | --- | --- | --- | --- | --- | --- | --- | --- |
| 3 | 9 | 19 | 0 | 19 | 0 | – | – | O=c1c(O[C@@H]2O[C@H](CO)[C@@H](O)[C@H](O)[C@H]2O)c(-c2ccc(O)c(O)c2)oc2cc(O)cc(O)c12 |
| 39 | 18 | 39 | 12 | 34 | 10 | 48 | – | O=C(O[C@H]1[C@H](Oc2c(-c3ccc(O)c(O)c3)oc3cc(O)cc(O)c3c2=O)O[C@H](CO)[C@@H](O)[C@@H]1O)c1cc(O)c(O)c(O)c1 |
| 35 | 15 | 35 | 6 | 39 | 3 | 53 | 466 | O=C(O[C@H]1[C@H](Oc2c(-c3ccc(O)cc3)oc3cc(O)cc(O)c3c2=O)O[C@H](CO)[C@@H](O)[C@@H]1O)c1cc(O)c(O)c(O)c1 |
| 31 | 22 | 53 | 2 | 28 | 0 | 67 | 401 | O=c1c(O[C@@H]2O[C@H](CO)[C@@H](O)[C@H](O)[C@H]2O)c(-c2ccc(O)cc2)oc2cc(O)cc(O)c12 [ASTRAGALIN] |
